# Source: ChEMBL document CHEMBL1141043, “Novel, selective indole-based ECE inhibitors: lead optimization via solid-phase and classical synthesis” (Bioorg Med Chem Lett, 2005)
# Biological target: T1, Endothelin-converting enzyme 1 (Homo sapiens, UniProt P42892)
# T1 sequence (P42892 whole entry): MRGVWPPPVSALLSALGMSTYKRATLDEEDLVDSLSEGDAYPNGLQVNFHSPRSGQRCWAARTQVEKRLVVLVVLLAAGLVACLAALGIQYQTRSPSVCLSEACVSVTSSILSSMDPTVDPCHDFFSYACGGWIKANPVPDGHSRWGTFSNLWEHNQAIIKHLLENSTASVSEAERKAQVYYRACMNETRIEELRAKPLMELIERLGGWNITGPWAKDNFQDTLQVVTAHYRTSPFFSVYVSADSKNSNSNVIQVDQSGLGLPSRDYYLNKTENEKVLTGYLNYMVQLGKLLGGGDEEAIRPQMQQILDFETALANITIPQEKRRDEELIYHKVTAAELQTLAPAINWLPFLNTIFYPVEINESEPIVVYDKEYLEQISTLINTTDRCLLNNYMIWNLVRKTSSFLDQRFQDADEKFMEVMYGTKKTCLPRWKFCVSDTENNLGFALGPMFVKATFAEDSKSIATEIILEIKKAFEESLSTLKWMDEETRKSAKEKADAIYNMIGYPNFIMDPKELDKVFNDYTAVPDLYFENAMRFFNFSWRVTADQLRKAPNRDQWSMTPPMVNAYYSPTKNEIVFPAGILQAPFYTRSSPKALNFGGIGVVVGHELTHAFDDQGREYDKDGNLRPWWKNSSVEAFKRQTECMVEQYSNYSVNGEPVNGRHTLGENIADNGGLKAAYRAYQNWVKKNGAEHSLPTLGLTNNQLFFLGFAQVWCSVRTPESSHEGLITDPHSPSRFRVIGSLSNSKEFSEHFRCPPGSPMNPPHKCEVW
# Assay: Inhibitory concentration against endothelin converting enzyme 1 using big-ET-1 substrate in ELISA
row,IC50,SMILES
1,0.12 µM,CC(C)(C)CC(=O)Nc1ccc2c(c1)cc(C(=O)Nc1cccc(C(=O)Nc3ccc(S(C)(=O)=O)cc3)c1)n2Cc1ccccc1F
2,0.039 µM,CC(C)(C)CC(=O)Nc1ccc2c(c1)cc(C(=O)Nc1cccc(C(=O)Nc3ccc(S(N)(=O)=O)cc3)c1)n2Cc1ccccc1F

# Second part, the compound before the results:
row,SMILES,IC50
1,C[S+]([O-])c1ccc(NC(=O)c2cccc(NC(=O)c3cc4cc(NC(=O)CC(C)(C)C)ccc4n3Cc3ccccc3F)c2)cc1 (stereo not drawn),0.066 µM
2,CNS(=O)(=O)c1ccc(NC(=O)c2cccc(NC(=O)c3cc4cc(NC(=O)CC(C)(C)C)ccc4n3Cc3ccccc3F)c2)cc1,0.15 µM

# Biological target: T1, Endothelin-converting enzyme 1
# Assay: Inhibitory concentration against endothelin converting enzyme 1 using bradykinin-derived substrate
row,IC50,SMILES
1,> 10 µM,CC(C)(C)CC(=O)Nc1ccc2c(c1)cc(CNc1ccccc1)n2Cc1ccccc1F
2,> 10 µM,CC(C)(C)CC(=O)Nc1ccc2c(c1)cc(-c1nc(-c3ccccc3)no1)n2Cc1ccccc1F
3,> 10 µM,CC(C)(C)CC(=O)Nc1ccc2c(c1)cc(C(=O)Nc1ccn[nH]1)n2Cc1ccccc1F

row,SMILES,IC50
1,CC(C)(C)CC(=O)Nc1ccc2c(c1)c(C(=O)Nc1ccccc1)cn2Cc1ccccc1F,> 10 µM
